Measured values: patent US20120118175A1, “TREATMENT TO REDUCE MICROORGANISMS WITH CARBON DIOXIDE BY MULTIPLE PRESSURE OSCILLATIONS” (SAFEFRESH TECHNOLOGIES, LLC, priority 2004, published 2012)
Where “and” joins values, the source holds several entries; their conditions need not be identical. Equal entries are not always repeated.

Columns and labels:
E. coli 0157 = test: Inoculated meat cubes treated with carbon dioxide in high pressure reactor, E. coli 0157 plate count; type: cell-based
Protocol: To carry out the experiments, a high pressure reactor was designed to the following specifications. • A vessel built to withstand about 3000 psig with top and bottom vents for the addition/venting of carbon dioxide gas as required. • An analog pressure gauge. • A digital temperature recorder on the top vent from the vessel. • A pH probe that could be raised/lowered into the center of the reactor top. • A supply of liquid carbon dioxide at about 300 psi and −20° C. • A supply of gaseous carbon dioxide heated to about 56° C. in a hot water bath. • A supplementary probe to measure the temperature of the reactor barrel surface. • Lap top computer to record temperature data.
FIG. 8 is a schematic illustration of laboratory equipment 800 used in carrying out various tests of the treatment of meat with carbon dioxide. The apparatus 800 includes pressure cylinders 804, 806, and 808 with high-pressure piping 824, pressure release safety valve 828 and on/off valves 812, 814, 816, 818, 820, and 822. Meat samples, having been inoculated, are suspended from a centrally located shaft within the cylinder 804 and the upper member 802 is bolted to the cylinder 804 in a manner that substantially ensures a leak-proof and pressure tight seal. A stream of fluid carbon dioxide 824 that progressively turns to liquid is transferred into the cylinder 804 until the suspended meat samples therein are immersed in the liquid carbon dioxide. After a recorded and selected period of time, the liquid carbon dioxide is removed from the cylinder 804 and the pressure therein reduced to ambient atmospheric pressure. The samples can then be removed from the cylinder and the reduction of bacteria population determined. The items 806 and 808 are commonly referred to as an intensifier. Opening valve 812 allows filling the cylinder 806 with low pressure fluid carbon dioxide, and then, after isolation of the lower pressure source of the fluid carbon dioxide, a piston in cylinder 808 is activated by hydraulic oil from line 826 (or high-pressure air or gas) and a smaller diameter piston in cylinder 806 compresses the fluid carbon dioxide and elevates the pressure. The higher pressure carbon dioxide fluid in line 824 is then transferred to cylinder 804 via a selected path through high-pressure piping 824 as shown.
Cell cultures were grown overnight in a nutrient broth. The cells were separated by centrifugation and washed in a sterile buffer. The E. coli cell suspension was then diluted to give log 7-9 cell per ml.
Meat was purchased at a local retail store. The meat was aseptically cut into 1 inch cubes and suspended by attachment to sterile fish hooks. Meat samples were then placed into an inoculation chamber where they were sprayed with about 10 mls of the cell inoculum. This was done ensuring that all 6 sides of each piece of meat received the same exposure to the E. coli. The samples were then allowed to stand for about 30 minutes at room temperature to achieve the attachment of the E. coli to the meat. One of these meat samples was immediately taken and analyzed for E. coli (as a control). The remaining inoculated samples were then placed into the reactor and the experiment started.
One (1) inch meat cube samples were suspended from the pH probe using small fishing hooks and line so that the cubes were suspended in the bottom third of the reactor and were neither touching each other nor the walls of the vessel.
(§1) Each meat sample was placed into a sterile bag and weighed, a known volume of sterile buffer was added as a diluent and the meat sample homogenized in a ‘Stomacher’. This suspension was then further diluted as 1:10 dilutions and duplicate 1 ml samples were plated onto the surface of agar media formulated for the enumeration of E. coli 0157. The bacterial levels were recorded as colony forming units CFU per g. or as log 10 of that number.
The methodology was as stated above. The reactor contained inoculated meat. […]

Meat Normal Flora = test: Un-inoculated meat exposed to CO2 in a supercritical fluid extractor, bacterial plate count; type: cell-based; conditions: for CFU/g / Logs: control 7.53 logs, listed as CO2
Protocol: as §1
The above experiments used the most exacting conditions available given the reactor equipment. The survival of natural microflora of meat when treated with carbon dioxide in the super critical range was also investigated.
In the Dairy Science chemistry research lab in Call Hall (KSU), equipment is available to achieve temperatures and pressures above the critical point of carbon dioxide (a Pepmaster GA made by the Suprex Corp.). This device is mainly used for lipid extraction from natural materials prior to further analysis.
The tests were undertaken to determine the efficacy of supercritical carbon dioxide using laboratory equipment shown schematically in FIGS. 8 and 9.
The sample cells 2 in parallel hold about 4 gr of sample which is sufficient to do microbial analysis and the equipment could control pressure up to about 7500 psig, temperature (above ambient), and time. Introduction of E. coli 0157 meat into the lab was not possible. […]

[1] = Experiment 1: 300-1000 psi, 10 min
[2] = Experiment 3: 1000 psi @ 13° C. held 4 hours, analyzed immediately, control 7.87 logs, listed as Liquid CO2
[3] = Experiment 4: 1470 psi @ 29° C., 5 min
[4] = Experiment 4: 3000 psi @ 29° C., 5 min

Structure (SMILES): O=C=O [carbon dioxide]
- average of the 3 test samples (E. coli 0157; [1]): 7.22 log
- log reduction versus control (E. coli 0157; [1]): 0.47 log
- average of the test samples (E. coli 0157; Experiment 2: -17° C. at 300 psig, then 1000 psig 5 min): 6.5 log
- log reduction versus control (E. coli 0157; Experiment 2: -17° C. at 300 psig, then 1000 psig 5 min, meat frozen, listed as Liquid CO2): ~1 log and 1.27 log
- CFU/g (E. coli 0157; [2]): 8,741,258.7 CFU/g and 14,344,362.3 CFU/g and 8,467,741.9 CFU/g
- Logs (E. coli 0157; [2]): 6.94 Logs and 7.16 Logs and 6.93 Logs
- log reduction versus control (E. coli 0157; Experiment 3: 1000 psig 4 hours, analyzed immediately): ~1 log and 0.86 log
- further log kill by storage (E. coli 0157; Experiment 3: storage in about 100% carbon dioxide at about 4° C. for 4 days after treatment): 2.83 log
- destruction of E. coli 0157 on meat surfaces (E. coli 0157; liquid carbon dioxide in the sub critical range alone): no practical significance
- log kill with liquid carbon dioxide (E. coli 0157; liquid carbon dioxide, experiment not specified): ~0.5 log
- log bacteria reduction versus control (Meat Normal Flora; Experiment 4: 1470 psi @ 29° C. (line 21B)): ~1 log
- CFU/g (Meat Normal Flora; [3]): 5,233,644.9 CFU/g and 9,523,809.5 CFU/g
- Logs (Meat Normal Flora; [3]): 6.72 Logs and 6.98 Logs
- log bacteria reduction versus control (Meat Normal Flora; Experiment 4: 3000 psi @ 29° C. (lines 22C and 23D)): ~1 log
- CFU/g (Meat Normal Flora; [4]): 9,029,345.4 CFU/g and 5,154,639.2 CFU/g
- Logs (Meat Normal Flora; [4]): 6.96 Logs and 6.71 Logs
- log bacteria after the test (Meat Normal Flora; Experiment 5: 3000 psi, 36° C., 5 min (mean of replicates)): 5.53 log
- log reduction versus control (Meat Normal Flora; Experiment 5: supercritical, 3000 psi, 36° C., 5 min): ~2 log and 1.83 log
